According to patent US20110045101A1, “FUNGICIDAL SUBSTITUTED AZOLES” (E.I. Du Pont De Nemours and Company, priority 2009, published 2011):
Marks after values point to notes of the source that are not given here.

How the values were obtained:
Assay type in all cases: in vivo
Details in all cases: 100 = 100% disease control
Septoria tritici = experiment: Test G: wheat leaf blotch on wheat seedlings, sprayed the day before inoculation, visual disease rating
Procedure, shortened: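 Disease was rated visually after Septoria tritici inoculation, 48 h saturated incubation at 24°C and 19 days in a 20°C growth chamber. Inoculation followed one day after run-off spraying of seedlings with compound at 200 ppm (≈500 g/ha) or, where marked, 40 ppm, formulated in acetone/water with surfactant.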

[1] = test system: Erysiphe graminis f. sp. tritici; experiment: Test J: wheat powdery mildew on wheat seedlings, sprayed the day before inoculation, visual disease rating
Procedure, shortened: (§1)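 Spray suspension: acetone 3% of final volume, then 50/50 acetone/water plus 250 ppm Trem® 014. Applied to run-off on seedlings at 200 ppm (≈500 g/ha); starred entries tested at 40 ppm.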

Septoria nodorum = experiment: Test F: wheat glume blotch on wheat seedlings, sprayed the day before inoculation, visual disease rating
Procedure, shortened: as §1

[2] = test system: Puccinia recondita f. sp. tritici; experiment: Test I: wheat leaf rust on wheat seedlings, sprayed the day before inoculation, visual disease rating
Procedure, shortened: as §1

Botrytis cinerea = experiment: Test C: tomato Botrytis on tomato seedlings, sprayed the day before inoculation, visual disease rating
Procedure, shortened: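 Spray to run-off on tomato seedlings; test conc. 200 ppm (≈500 g/ha), some entries 40 ppm. Formulation: acetone 3% of final vol., then acetone/water 50:50 + 250 ppm polyhydric alcohol ester surfactant.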

Alternaria solani = experiment: Test D: tomato early blight, sprayed the day before inoculation, visual disease rating
Procedure, shortened: as §1

[3] = test system: Puccinia recondita f. sp. tritici; experiment: Test H: wheat leaf rust, test suspension sprayed after inoculation of wheat seedlings, visual disease rating
Procedure, shortened: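 Wheat seedlings inoculated with P. recondita spores, held 24 h saturated at 20 °C, then 2 days in growth chamber at 20 °C; compound suspension (acetone/water with Trem 014) sprayed to run-off afterwards. Rated visually; 200 ppm (≈500 g/ha) unless marked *, which denotes 40 ppm.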

[4] = 200 ppm, 0 = no control relative to controls
[5] = 40 ppm (marked *), 0 = no control

Row | Compound | Test G disease control rating (Septoria tritici; [4]) [%] | Test J disease control rating [1, 4] [%] | Test F disease control rating (Septoria nodorum; [4]) [%] | Test I disease control rating [2, 4] [%] | Test C disease control rating (Botrytis cinerea; [4]) [%] | Test D disease control rating (Alternaria solani; [4]) [%] | Test H disease control rating [3, 4] [%] | also measured
1 | Fc1cc(-n2c(Cl)nc(CCl)c2-c2ccc(Br)cn2)ccc1Cl [compound 357] | 50 | 0 | 100 | 55 | 63 | 0 | 0 | 
2 | Cc1nc(Br)n(-c2ccc(F)cc2Cl)c1-c1ccc(Cl)cc1 [compound 339] | 95 | 96 | 78 | 96 | 100 | 99 | 0 | 
3 | Cc1nc(Br)n(-c2ccc(Cl)nc2)c1-c1c(F)cccc1F [compound 682] | 100 | 100 | 99 | 100 | 100 | 100 | 97 | 
4 | Cc1nc(Cl)c(-c2c(F)cccc2F)n1-c1ccc2ccccc2c1 [compound 303] |  |  |  |  |  |  |  | Test G disease control rating (Septoria tritici; [5]): 96* %; Test J disease control rating [1, 5]: 81* %; Test F disease control rating (Septoria nodorum; [5]): 98* %; Test I disease control rating [2, 5]: 74* %; Test C disease control rating (Botrytis cinerea; [5]): 100* %; Test D disease control rating (Alternaria solani; [5]): 99* %; Test H disease control rating [3, 5]: 0* %
5 | N#Cc1ccc(F)c(-c2c(Cl)nc(Cl)n2-c2ccc(Cl)nc2)c1F [compound 691] |  |  |  |  |  |  |  | Test G disease control rating (Septoria tritici; 40 ppm (marked *)): 95* %; Test J disease control rating ([1]; 40 ppm (marked *)): 64* %; Test F disease control rating (Septoria nodorum; 40 ppm (marked *)): 51* %; Test I disease control rating ([2]; 40 ppm (marked *)): 82* %; Test C disease control rating (Botrytis cinerea; 40 ppm (marked *)): 99* %; Test D disease control rating (Alternaria solani; 40 ppm (marked *)): 99* %; Test H disease control rating ([3]; 40 ppm (marked *)): 39* %
6 | N#Cc1ccc(F)c(-c2c(Cl)nc(Cl)n2-c2cccc(F)c2)c1F [compound 681] | 99 | 100 | 98 | 99 | 99 | 100 | 0 | 
7 | COc1cc(F)c(-c2c(Cl)nc(Cl)n2-c2ccccc2)c(F)c1Cl [compound 428] | 99 | 100 | 0 | 100 | 100 | 100 | 0 | 
8 | COc1ccc(F)c(-c2c(Cl)nc(C)n2-c2cccc(OC(F)F)c2)c1F [compound 426] | 100 | 100 | 100 | 100 | 100 | 100 | 27 | 
9 | COc1ccc(-n2c(Cl)nc(C)c2-c2c(F)cccc2F)cn1 [compound 718] | 100 | 100 | 97 | 100 | 100 | 100 | 99 | 
10 | Fc1ccc(-n2cnc(Br)c2-c2c(F)ccc(F)c2Cl)cc1 [compound 508] | 94 | 99 | 0 | 99 | 100 | 100 | 78 | 
11 | COc1cc(F)c(-c2c(Cl)nc(Cl)n2-c2cccc(OC(F)F)c2)c(F)c1 [compound 565] | 96 | 100 | 100 | 100 | 100 | 100 | 97 | 
12 | Fc1ccc(F)c(-c2c(Br)nc(Br)n2-c2ccc(Cl)cc2)c1F [compound 383] |  |  |  |  |  |  |  | Test G disease control rating (Septoria tritici; [5]): 96* %; Test J disease control rating [1, 5]: 98* %; Test F disease control rating (Septoria nodorum; [5]): 35* %; Test I disease control rating [2, 5]: 91* %; Test C disease control rating (Botrytis cinerea; [5]): 100* %; Test D disease control rating (Alternaria solani; [5]): 99* %; Test H disease control rating [3, 5]: 0* %
13 | COc1cc(F)c(-c2c(Cl)nc(Br)n2-c2ccc(C)c(Cl)c2)c(F)c1 [compound 542] |  |  |  |  |  |  |  | Test G disease control rating (Septoria tritici; 40 ppm (marked *)): 97* %; Test J disease control rating ([1]; 40 ppm (marked *)): 89* %; Test F disease control rating (Septoria nodorum; 40 ppm (marked *)): 0* %; Test I disease control rating ([2]; 40 ppm (marked *)): 98* %; Test C disease control rating (Botrytis cinerea; 40 ppm (marked *)): 99* %; Test D disease control rating (Alternaria solani; 40 ppm (marked *)): 96* %; Test H disease control rating ([3]; 40 ppm (marked *)): 0* %
14 | Cc1ccc(-n2cnc(Br)c2-c2c(F)ccc(F)c2F)cc1 [compound 411] | 99 | 100 | 0 | 99 | 100 | 100 | 0 | 
15 | Cc1ncn(-c2ccc(Cl)c(F)c2)c1-c1sc(Cl)nc1Cl [compound 377] | 3 | 33 | 0 | 27 | 0 | 0 | 0 | 
16 | Fc1cc(F)c(-c2c(Cl)nc(Cl)n2-c2ccc(OC(F)F)cc2)c(F)c1 [compound 598] | 99 | 100 | 100 | 100 | 100 | 100 | 99 | 
17 | COc1cc(F)c(-c2c(C)nc(C)n2-c2ccc(C)cc2)c(F)c1 [compound 521] |  |  |  |  |  |  |  | Test G disease control rating (Septoria tritici; 40 ppm (marked *)): 98* %; Test J disease control rating ([1]; 40 ppm (marked *)): 90* %; Test F disease control rating (Septoria nodorum; 40 ppm (marked *)): 0* %; Test I disease control rating ([2]; 40 ppm (marked *)): 98* %; Test C disease control rating (Botrytis cinerea; 40 ppm (marked *)): 99* %; Test D disease control rating (Alternaria solani; 40 ppm (marked *)): 99* %; Test H disease control rating ([3]; 40 ppm (marked *)): 0* %
18 | COc1cc(F)c(-c2c(Cl)nc(Br)n2-c2ccccc2)c(F)c1Br [compound 429] | 99 | 98 | 0 | 98 | 99 | 77 | 0 | 
19 | Cc1nc(Cl)c(-c2ccc(Cl)cc2)n1-c1c(F)cc([N+](=O)[O-])cc1F [compound 708] | 99 | 89 | 82 | 80 | 100 | 0 | 7 | 
20 | CCOc1ccc(F)c(-c2c(Cl)nc(C)n2-c2cccc(F)c2)c1F [compound 724] | 98 | 99 | 97 | 100 | 100 | 100 | 0 | 
21 | COc1cc(Cl)c(-c2c(Cl)nc(Br)n2-c2ccc(Cl)c(F)c2)c(Cl)c1 [compound 574] | 100 | 97 | 60 | 98 | 100 | 0 | 0 | 
22 | COc1cc(F)c(-c2c(Cl)ncn2-c2cccc(OC(F)F)c2)c(F)c1 [compound 556] | 95 | 97 | 98 | 100 | 100 | 99 | 87 | 
23 | COc1cncc(F)c1-c1c(Cl)nc(Cl)n1-c1ccc(Cl)c(F)c1 [compound 435] | 99 | 0 | 0 | 68 | 99 | 24 | 0 | 
24 | COc1ccc(F)c(-c2c(Cl)nc(Cl)n2-c2ccc(C#N)cc2)c1F [compound 552] | 96 | 98 | 0 | 46 | 99 | 100 | 0 | 
25 | COc1ccc(F)c(-c2c(Cl)nc(Cl)n2-c2ccc(C)c(F)c2)c1F [compound 561] | 100 | 100 | 97 | 100 | 99 | 100 | 9 | 
